These results are taken from patent US20240182423A1, “4-AMINOQUINOLINES FOR TREATMENT OF MULTIDRUG RESISTANT MALARIA” (United States Government as represented by the Department …, priority 2022, published 2024).

The test system of series [1] is drug sensitive D6 clone of P. falciparum. The series can be described thus: SYBR Green I fluorescence-based antiplasmodial assay, D6. It is filed as cell-based, Plasmodium falciparum. As to conditions: Plasmodium falciparum, D6, 72 h, P. falciparum D6, 72 hours. The method, then:
(§1) Laboratory strains of P. falciparum were cultured in human erythrocytes by standard methods (Trager, W.; Jensen, J. B. Human malaria parasites in continuous culture. Science 1976, 193 (4254), 673-675. DOI: 10.1126/science.781840 from NLM Medline). The parasites were grown in culture medium with fresh human erythrocytes maintained at 2% hematocrit at 37° C. in low-oxygen conditions (5% 02, 5% CO2, 90% N2). The culture medium used was RPMI-1640 with 25 mg/L gentamicin sulfate, 45 mg/L Albumax II, 10 mM glucose, and 25 mM HEPES buffer (Smilkstein et al., Simple and inexpensive fluorescence-based technique for high-throughput antimalarial drug screening. Antimicrob Agents Chemother 2004, 48 (5), 1803-1806. DOI: 10.1128/aac.48.5.1803-1806.2004). Cultures were maintained at less than 10% parasitemia by transfer of infected cells to fresh erythrocytes and culture medium every 3 or 4 days. […]
(§2) In vitro antimalarial activity was measured using the SYBR Green I fluorescence-based assay. […] Experiments were set up in quadruplicate in 96-well plates with a 100 μL total volume per well with 2% hematocrit, 0.2% parasitemia, and drug dilutions between 0.25 and 250 nM in complete culture medium described above. The plates were incubated at 37° C. in low-oxygen conditions described previously for 72 hours, at which point 100 μL of fluorescent dye-detergent mixture (0.2 μL SYBR Green I: 1 mL lysing buffer) was added and the plates incubated in the dark at room temperature for one hour. After incubation with the fluorescent dye, a 96-well plate reader with excitation wavelength set at 497 nm and emission at 520 nm, was used to measure fluorescence of each well.
(§3) Each of the ADC derivatives was tested for antiplasmodial activity against the drug sensitive D6 clone of P. falciparum as well as one or more of the following multidrug resistant strains: Dd2 or 7G8. The method used for antiplasmodial testing is known as the SyBr Green assay and it was described by us in 2004 (Smilkstein et al., Antimicrob Agents Chemother 2004, 48 (5), 1803-1806).

Series [2] in a line: Pharmacokinetic study in mice. The series is classed as in vivo.
Series [3] deals with multi-drug resistant (Dd2) P. falciparum. Put plainly: SYBR Green I fluorescence-based antiplasmodial assay, Dd2. As to conditions: Plasmodium falciparum, DD2, 72 h, P. falciparum Dd2, 72 hours. It is filed as cell-based, Plasmodium falciparum. The method, then:
as §1, §2, §3

Series [4] in a line: HepG2 cytotoxicity assay (resazurin). The series is classed as cell-based. The conditions noted are these: human; HepG2, 24 h drug then 24 h drug-free; read-out: CC50 v HepG2. The method, then: Final compounds were assessed for mammalian cytotoxicity using an immortalized human liver carcinoma cell line (HepG2) using previously described methods.^1 In short, final compounds were prepared in DMSO as 10 mM stock solutions. […] To 96-well flat-bottomed tissue culture plates, HepG2 cells were added at 2×10 4 density with an additional 160 μL of complete culture media per well and were incubated overnight at 37° C. to allow for adherence. Compound stocks aliquots were applied as 40 μL solutions in complete media to each well in a serial dilution series that ranged from […] as duplicates. A 10 mM DMSO stock of mefloquine was used as a positive control. […] 20 μL of resazurin (Alamar Blue) in PBS buffer was added to each well to a final concentration of 10 μM, and the plates were incubated for 3 h. Fluorescence was measured at 560 nm excitation and 590 nm emission bands using a Spectramax iD3 plate reader. Fluorescence output values were normalized to the untreated control wells and plotted against the logarithm of drug concentration.

Setting [5] is: mouse, plasma, PO 5 mg/kg in PEG400, male CD1 mice.
The mark [6] stands for this setting: mouse, plasma, PO 5 mg/kg in PEG400, male CD1 mice, non-compartmental.

For orientation: IC50 means the concentration needed to halve the response being measured. A lower IC50 goes with greater potency. Usually AUC(0-inf) stands for total exposure, with the tail of the curve extrapolated. The low end stands for less exposure, the high end for more exposure. The AUC(0-t) is the area under the concentration-time curve up to a stated or last time point. A lower AUC(0-t) goes with less exposure. Usually MRT inf stands for a mean duration of stay, worked out from the concentration-time curve. By Cmax is commonly meant the maximum level reached in the sampled fluid or tissue. As usually defined, the Tmax is the time at which the peak concentration occurs. The half-life is the time in which the quantity being followed falls by half. By CC50 is commonly meant the concentration that lowers cell viability or growth by half.

SMILES strings stand for the structures.

In the case of `CC(C)CN1CCC(c2ccc(Nc3ccnc4cc(Cl)ccc34)cc2)CC1` [ADC-028, 7-chloro-N-(4-(1-isobutylpiperidin-4-yl)phenyl)quinolin-4-amine], the IC50 in series [1] turned out to be 7.9 nM. Moreover, the MRTIast in series [2] (PO 5 mg/kg in PEG400, male CD1 mice) turned out to be 19.3 h. In series [2] (setting [5]), this molecule showed an AUC(0-inf) of 3160 ng·h/mL, an AUC(0-t) of 2360 ng·h/mL and an MRT inf of 35.6 h. Besides, in series [2] (setting [6]), the peak level (Cmax) was 67.7 ng/mL and the Tmax worked out at 1 h. Besides, in series [2] (mouse, plasma, PO 5 mg/kg, male CD1 mice, Rsq_adjusted 0.829 (<0.9: might not be accurately estimated)), the half-life was 25.1 h. Further, inhibition in series [3] was half-maximal at 17.4 nM (IC50). Besides, the CC50 at 24 h in series [4] was above 200000 nM.
